This note sets out measurements from the NIST ThermoML archive (doi:10.1021/je700088n).

± gives the expanded uncertainty stated by the source.

The conditions of series [1]: Crystal; for Normal melting temperature: DTA; for mass density: 298.1 K, 101.33 kPa, digital densimeter.
Series [2] can be described thus: Molar enthalpy of transition or fusion. The following applies: Crystal; DSC.

For orientation: mass density means mass per unit of volume.

As to `Cc1ccc2c(C)cccc2c1` [1,6-dimethylnaphthalene], the Normal melting temperature in series [1] was -16.20 ± 0.5 °C. Moreover, in series [2], the “Molar enthalpy of transition or fusion” value was determined as 2.03 ± 0.0741 kcal/mol.

On to `Cc1ccc(C)c2ccccc12` [1,4-dimethylnaphthalene], for which, in series [1], the Normal melting temperature was 6.00 ± 0.5 °C. The “Molar enthalpy of transition or fusion” value in series [2] was 2.53 ± 0.0884 kcal/mol.

For the molecule `Cc1cccc2c(C)cccc12` [1,5-dimethylnaphthalene], in series [1], the Normal melting temperature turned out to be 82.00 ± 0.5 °C. Moreover, the “Molar enthalpy of transition or fusion” value in series [2] was 4.78 ± 0.143 kcal/mol.

Regarding `Cc1cccc2ccccc12` [1-methylnaphthalene], the Normal melting temperature in series [1] was -30.9 ± 0.5 °C.

For `Cc1cc2ccccc2cc1C` [2,3-dimethylnaphthalene], in series [1], the mass density came out at 1012 ± 10 kg/m3 and the Normal melting temperature turned out to be 104.00 ± 0.5 °C. For the same molecule, in series [2], the “Molar enthalpy of transition or fusion” value amounted to 5.73 ± 0.167 kcal/mol.

As to `Cc1ccc2cc(C)ccc2c1` [2,6-dimethylnaphthalene], in series [1], the mass density was 1021 ± 10 kg/m3 and the Normal melting temperature was determined as 112.00 ± 0.5 °C. Also, the “Molar enthalpy of transition or fusion” value in series [2] stood at 6.05 ± 0.174 kcal/mol.

For the molecule `Cc1ccc2ccccc2c1` [2-methylnaphthalene], in series [1], the Normal melting temperature is 34.70 ± 0.5 °C.

Consider `Cc1ccc2ccc(C)cc2c1` [2,7-dimethylnaphthalene], for which, in series [1], the mass density is reported as 1010 ± 10 kg/m3 and the Normal melting temperature came to 97.00 ± 0.5 °C. Also, the “Molar enthalpy of transition or fusion” value in series [2] was 5.31 ± 0.158 kcal/mol.

Take `Cc1cccc2cccc(C)c12` [1,8-dimethylnaphthalene]: in series [1], the Normal melting temperature was 65.00 ± 0.5 °C. Moreover, in series [2], the “Molar enthalpy of transition or fusion” value came to 4.43 ± 0.134 kcal/mol.
